Values joined by “and” are separate entries in the source; they are usually repeats but may differ in a detail not shown here. Identical values can stand only once.

The target in experiment [1] is Beta-2 adrenergic receptor (Homo sapiens, UniProt P07550). Type of experiment: functional, cell-based.
Experiment [2] addresses T1, B2 bradykinin receptor (Homo sapiens, UniProt P30411).
T1 sequence (P30411 whole entry): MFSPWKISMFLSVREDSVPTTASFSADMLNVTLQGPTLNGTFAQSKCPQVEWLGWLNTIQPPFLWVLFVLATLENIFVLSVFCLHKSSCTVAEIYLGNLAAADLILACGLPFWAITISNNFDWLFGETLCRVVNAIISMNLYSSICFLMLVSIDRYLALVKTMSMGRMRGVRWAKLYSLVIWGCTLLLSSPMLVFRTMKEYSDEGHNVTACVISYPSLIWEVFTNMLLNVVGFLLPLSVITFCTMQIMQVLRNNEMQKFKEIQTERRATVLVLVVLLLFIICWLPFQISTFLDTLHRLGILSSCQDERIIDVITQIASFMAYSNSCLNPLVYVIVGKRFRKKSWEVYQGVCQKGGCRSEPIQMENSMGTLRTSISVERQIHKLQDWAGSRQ

The target in experiment [3] is T2, Glucocorticoid receptor (Homo sapiens, UniProt P04150).
T2 sequence (P04150 whole entry): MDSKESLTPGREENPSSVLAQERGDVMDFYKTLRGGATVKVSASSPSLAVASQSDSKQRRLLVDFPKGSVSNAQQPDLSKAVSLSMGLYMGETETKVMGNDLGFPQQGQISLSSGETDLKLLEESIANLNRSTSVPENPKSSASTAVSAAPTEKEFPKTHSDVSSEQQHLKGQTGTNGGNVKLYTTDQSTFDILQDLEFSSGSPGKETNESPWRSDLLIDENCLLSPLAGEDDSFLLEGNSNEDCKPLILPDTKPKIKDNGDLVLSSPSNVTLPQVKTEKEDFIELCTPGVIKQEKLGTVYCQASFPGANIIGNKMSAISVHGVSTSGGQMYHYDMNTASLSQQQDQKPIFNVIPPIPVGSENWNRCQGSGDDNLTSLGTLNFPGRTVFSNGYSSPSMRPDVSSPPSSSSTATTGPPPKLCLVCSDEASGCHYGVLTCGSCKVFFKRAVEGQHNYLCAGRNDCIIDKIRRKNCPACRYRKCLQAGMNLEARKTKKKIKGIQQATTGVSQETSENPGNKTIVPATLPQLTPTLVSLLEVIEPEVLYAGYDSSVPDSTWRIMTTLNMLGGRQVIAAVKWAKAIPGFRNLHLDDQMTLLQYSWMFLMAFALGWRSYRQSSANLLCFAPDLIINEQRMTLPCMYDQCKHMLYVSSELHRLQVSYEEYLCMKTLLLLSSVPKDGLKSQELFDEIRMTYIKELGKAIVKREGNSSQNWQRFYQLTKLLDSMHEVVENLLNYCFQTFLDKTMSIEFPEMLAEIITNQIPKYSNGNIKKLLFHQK

Experiment [4] concerns the target T3, Progesterone receptor (Homo sapiens, UniProt P06401).
T3 sequence (P06401 whole entry): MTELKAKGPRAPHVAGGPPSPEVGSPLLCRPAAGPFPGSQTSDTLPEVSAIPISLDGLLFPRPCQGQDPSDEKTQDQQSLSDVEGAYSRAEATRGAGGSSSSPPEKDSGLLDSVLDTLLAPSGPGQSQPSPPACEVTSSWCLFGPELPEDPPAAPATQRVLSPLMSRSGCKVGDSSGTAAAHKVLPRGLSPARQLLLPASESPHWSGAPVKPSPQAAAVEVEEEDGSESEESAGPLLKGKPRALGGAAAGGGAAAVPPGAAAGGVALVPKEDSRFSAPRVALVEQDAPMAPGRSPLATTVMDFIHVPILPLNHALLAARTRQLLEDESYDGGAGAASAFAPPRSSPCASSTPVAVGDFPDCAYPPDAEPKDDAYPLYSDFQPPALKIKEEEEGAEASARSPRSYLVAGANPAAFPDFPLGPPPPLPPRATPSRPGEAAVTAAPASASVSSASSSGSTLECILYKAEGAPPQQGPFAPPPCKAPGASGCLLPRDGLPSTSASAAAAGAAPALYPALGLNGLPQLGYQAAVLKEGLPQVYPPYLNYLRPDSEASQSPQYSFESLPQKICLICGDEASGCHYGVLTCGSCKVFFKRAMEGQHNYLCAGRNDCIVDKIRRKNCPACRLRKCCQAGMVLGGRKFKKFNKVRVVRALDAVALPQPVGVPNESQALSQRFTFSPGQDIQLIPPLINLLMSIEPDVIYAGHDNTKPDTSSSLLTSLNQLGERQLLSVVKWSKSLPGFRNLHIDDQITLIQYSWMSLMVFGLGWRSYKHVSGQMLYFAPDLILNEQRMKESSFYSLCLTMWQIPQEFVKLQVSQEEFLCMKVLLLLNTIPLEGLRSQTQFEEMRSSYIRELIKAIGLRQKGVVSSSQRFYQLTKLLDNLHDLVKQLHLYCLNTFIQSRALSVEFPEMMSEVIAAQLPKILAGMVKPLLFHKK
Format: functional.

For experiment [5], the target named is Vascular endothelial growth factor receptor 2 (Homo sapiens, UniProt P35968). Format: functional.
Experiment [6] addresses T4, Alpha-1A adrenergic receptor (Homo sapiens, UniProt P35348).
T4 sequence (P35348 whole entry): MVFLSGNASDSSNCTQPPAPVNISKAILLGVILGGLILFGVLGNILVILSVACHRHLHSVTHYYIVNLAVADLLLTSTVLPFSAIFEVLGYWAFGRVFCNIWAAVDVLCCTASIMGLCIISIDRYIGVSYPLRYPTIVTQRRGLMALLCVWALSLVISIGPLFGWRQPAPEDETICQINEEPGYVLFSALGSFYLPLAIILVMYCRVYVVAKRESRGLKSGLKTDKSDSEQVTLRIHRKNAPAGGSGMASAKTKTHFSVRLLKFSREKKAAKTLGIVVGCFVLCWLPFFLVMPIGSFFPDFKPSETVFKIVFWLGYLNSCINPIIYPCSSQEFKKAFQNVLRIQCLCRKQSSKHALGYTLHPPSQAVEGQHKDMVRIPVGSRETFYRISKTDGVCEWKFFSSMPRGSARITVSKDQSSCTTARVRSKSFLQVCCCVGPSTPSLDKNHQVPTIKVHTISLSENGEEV
Type of experiment: functional, cell-based.

Experiment [7] concerns the target Acetylcholinesterase (Homo sapiens, UniProt P22303). Type of experiment: functional.
Experiment [8] addresses Gamma-aminobutyric acid receptor subunit alpha-1/alpha-2/beta-2/gamma-2 (Homo sapiens, UniProt P14867+P18507+P47869+P47870). Format: protein-complex assay.
Note: assay procedure not described here.

Sequence of Acetylcholinesterase (P22303 whole entry): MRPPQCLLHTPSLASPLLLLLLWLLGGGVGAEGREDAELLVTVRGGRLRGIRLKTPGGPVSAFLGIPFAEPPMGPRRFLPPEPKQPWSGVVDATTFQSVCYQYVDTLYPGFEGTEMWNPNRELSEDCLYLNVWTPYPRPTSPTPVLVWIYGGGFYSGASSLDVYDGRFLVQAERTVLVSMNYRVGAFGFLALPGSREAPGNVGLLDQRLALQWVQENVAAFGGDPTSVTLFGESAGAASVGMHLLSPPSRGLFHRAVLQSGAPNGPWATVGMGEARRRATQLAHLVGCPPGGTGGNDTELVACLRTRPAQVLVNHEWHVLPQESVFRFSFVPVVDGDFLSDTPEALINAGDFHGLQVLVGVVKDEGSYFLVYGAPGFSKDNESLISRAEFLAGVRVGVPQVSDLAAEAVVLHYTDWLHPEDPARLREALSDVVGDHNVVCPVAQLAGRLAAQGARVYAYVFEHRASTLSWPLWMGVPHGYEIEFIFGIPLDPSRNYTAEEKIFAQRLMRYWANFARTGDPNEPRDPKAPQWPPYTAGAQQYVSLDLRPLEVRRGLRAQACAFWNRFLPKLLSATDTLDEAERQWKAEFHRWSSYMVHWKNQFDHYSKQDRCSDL
Sequence of Gamma-aminobutyric acid receptor subunit alpha-1/alpha-2/beta-2/gamma-2 (P14867 whole entry): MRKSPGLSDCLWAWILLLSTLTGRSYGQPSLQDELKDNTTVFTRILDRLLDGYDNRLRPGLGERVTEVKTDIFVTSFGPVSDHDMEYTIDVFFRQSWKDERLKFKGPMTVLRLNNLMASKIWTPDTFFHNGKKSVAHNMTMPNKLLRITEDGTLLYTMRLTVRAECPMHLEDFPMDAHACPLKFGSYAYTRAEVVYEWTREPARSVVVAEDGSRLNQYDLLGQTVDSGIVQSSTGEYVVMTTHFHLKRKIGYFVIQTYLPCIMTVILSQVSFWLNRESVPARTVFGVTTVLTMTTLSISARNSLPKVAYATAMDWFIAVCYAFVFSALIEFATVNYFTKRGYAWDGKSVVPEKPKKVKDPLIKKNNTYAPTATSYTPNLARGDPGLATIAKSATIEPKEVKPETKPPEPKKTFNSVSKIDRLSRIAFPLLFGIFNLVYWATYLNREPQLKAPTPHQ
Sequence of Gamma-aminobutyric acid receptor subunit alpha-1/alpha-2/beta-2/gamma-2 (P47870 whole entry): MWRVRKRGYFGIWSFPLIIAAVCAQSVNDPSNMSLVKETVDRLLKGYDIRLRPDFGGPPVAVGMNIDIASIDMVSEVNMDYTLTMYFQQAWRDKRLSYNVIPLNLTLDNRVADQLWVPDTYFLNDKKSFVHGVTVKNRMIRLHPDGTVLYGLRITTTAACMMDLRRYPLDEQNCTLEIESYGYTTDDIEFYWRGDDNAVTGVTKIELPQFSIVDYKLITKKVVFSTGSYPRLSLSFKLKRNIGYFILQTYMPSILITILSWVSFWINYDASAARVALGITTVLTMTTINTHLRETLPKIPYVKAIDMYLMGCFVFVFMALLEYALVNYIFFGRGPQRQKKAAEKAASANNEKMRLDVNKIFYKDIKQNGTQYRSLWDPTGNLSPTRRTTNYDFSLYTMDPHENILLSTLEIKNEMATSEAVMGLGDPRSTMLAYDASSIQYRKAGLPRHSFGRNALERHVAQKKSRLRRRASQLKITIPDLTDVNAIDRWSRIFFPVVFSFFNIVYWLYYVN
Sequence of Gamma-aminobutyric acid receptor subunit alpha-1/alpha-2/beta-2/gamma-2 (P18507 whole entry): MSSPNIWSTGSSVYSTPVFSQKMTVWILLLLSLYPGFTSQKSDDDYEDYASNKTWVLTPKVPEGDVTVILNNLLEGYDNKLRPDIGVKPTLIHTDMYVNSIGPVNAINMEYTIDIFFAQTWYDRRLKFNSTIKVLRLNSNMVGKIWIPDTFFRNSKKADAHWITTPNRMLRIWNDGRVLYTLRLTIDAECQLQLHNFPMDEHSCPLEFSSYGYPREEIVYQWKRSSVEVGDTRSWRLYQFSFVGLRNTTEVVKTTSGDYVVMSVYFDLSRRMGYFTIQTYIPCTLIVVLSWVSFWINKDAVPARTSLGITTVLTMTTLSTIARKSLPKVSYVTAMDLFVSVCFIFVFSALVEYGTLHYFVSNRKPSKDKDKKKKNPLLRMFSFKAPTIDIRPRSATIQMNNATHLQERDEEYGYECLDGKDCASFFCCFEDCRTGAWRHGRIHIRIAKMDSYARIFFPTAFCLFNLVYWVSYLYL
Sequence of Gamma-aminobutyric acid receptor subunit alpha-1/alpha-2/beta-2/gamma-2 (P47869 whole entry): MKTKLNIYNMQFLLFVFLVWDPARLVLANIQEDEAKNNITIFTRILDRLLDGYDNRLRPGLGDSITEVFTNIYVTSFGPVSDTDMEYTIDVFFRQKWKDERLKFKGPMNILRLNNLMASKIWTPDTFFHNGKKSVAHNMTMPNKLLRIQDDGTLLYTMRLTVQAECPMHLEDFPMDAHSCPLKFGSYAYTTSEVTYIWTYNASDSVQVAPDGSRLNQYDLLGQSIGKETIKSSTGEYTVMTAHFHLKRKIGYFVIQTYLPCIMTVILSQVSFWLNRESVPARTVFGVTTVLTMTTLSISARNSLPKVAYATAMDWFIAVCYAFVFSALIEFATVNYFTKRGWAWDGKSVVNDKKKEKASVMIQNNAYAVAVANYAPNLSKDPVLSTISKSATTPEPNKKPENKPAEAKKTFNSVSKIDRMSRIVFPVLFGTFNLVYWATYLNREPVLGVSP
Sequence of Beta-2 adrenergic receptor (P07550 whole entry): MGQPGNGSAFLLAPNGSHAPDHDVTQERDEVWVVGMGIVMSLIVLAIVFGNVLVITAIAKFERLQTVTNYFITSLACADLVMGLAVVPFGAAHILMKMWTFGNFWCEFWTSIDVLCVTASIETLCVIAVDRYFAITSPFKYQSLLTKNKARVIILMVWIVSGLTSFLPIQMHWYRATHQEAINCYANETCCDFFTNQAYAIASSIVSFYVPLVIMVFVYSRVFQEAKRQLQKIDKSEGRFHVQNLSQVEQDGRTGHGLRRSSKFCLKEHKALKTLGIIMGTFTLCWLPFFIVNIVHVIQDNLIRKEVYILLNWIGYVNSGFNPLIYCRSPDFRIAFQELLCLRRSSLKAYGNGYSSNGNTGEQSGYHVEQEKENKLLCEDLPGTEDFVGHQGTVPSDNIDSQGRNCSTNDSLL
Sequence of Vascular endothelial growth factor receptor 2 (P35968 whole entry): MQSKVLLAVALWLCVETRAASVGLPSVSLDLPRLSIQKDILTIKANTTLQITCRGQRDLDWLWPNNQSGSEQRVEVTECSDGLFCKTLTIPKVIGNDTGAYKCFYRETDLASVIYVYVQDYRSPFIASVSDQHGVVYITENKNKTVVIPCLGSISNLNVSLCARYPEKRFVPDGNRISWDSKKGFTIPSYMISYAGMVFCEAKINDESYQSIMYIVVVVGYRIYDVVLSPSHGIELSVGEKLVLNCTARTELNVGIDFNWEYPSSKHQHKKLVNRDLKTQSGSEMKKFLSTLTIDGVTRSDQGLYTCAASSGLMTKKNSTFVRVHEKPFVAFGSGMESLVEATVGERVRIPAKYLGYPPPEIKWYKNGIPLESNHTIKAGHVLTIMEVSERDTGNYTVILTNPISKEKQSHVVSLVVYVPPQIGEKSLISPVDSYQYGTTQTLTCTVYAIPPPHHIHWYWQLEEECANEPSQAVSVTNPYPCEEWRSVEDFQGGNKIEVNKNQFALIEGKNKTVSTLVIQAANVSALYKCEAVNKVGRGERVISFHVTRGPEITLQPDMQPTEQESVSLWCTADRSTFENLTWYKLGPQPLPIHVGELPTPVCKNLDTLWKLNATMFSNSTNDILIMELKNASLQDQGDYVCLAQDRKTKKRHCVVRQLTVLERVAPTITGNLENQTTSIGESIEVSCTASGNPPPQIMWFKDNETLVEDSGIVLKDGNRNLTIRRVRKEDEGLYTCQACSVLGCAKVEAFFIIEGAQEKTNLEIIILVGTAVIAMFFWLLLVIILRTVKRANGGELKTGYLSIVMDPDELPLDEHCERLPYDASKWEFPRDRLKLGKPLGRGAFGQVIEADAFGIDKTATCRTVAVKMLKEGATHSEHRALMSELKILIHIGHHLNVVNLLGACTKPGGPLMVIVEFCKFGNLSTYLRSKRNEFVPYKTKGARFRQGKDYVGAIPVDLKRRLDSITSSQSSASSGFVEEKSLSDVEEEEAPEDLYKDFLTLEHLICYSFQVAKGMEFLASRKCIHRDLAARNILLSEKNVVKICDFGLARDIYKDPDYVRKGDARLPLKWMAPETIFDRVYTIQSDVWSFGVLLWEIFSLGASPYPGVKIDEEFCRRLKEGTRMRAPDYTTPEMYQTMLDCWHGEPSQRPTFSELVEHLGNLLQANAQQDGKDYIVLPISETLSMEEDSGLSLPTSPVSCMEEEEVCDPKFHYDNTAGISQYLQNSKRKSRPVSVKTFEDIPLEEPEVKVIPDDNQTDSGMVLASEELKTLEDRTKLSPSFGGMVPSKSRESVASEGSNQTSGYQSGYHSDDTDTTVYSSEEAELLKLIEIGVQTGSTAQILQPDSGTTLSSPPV

Regarding `CO/N=C(\C(=O)N[C@@H]1C(=O)N2C(C(=O)[O-])=C(C[N+]3(C)CCCC3)CS[C@H]12)c1csc(N)n1`, the AC50 in experiment [1] was > 300 µM; in experiment [2], > 30 µM; in experiment [3], > 30 µM; in experiment [4], > 30 µM and 140 µM.

`CCOC(=O)[C@H](CCc1ccccc1)N[C@@H](C)C(=O)N1CCC[C@H]1C(=O)O`: the AC50 in experiment [1], in experiment [2] and in experiment [3] was > 30 µM each time.

On to `C[C@H]1O[C@H](O[C@H]2[C@H](O)[C@@H](O)[C@@H](O[C@H]3[C@H](O)[C@@H](O)C(O)O[C@@H]3CO)O[C@@H]2CO)[C@H](O)[C@@H](O)[C@@H]1N[C@H]1C=C(CO)[C@@H](O)[C@H](O)[C@H]1O` (some centres not stated) [ACARBOSE], for which the AC50 in experiment [1], in experiment [2], in experiment [5], in experiment [3], in experiment [4] and in experiment [6] was > 30 µM in each case. Also, the AC50 in experiment [7] was > 30 µM.

Regarding `CC(=O)c1ccc2c(c1)N(CCCN1CCN(CCO)CC1)c1ccccc1S2` [ACETOPHENAZINE], the figures for the AC50 in experiment [1] and in experiment [4] were > 30 µM and > 3 µM, respectively.

Take `CN1CCCC(n2nc(Cc3ccc(Cl)cc3)c3ccccc3c2=O)CC1` (configuration not stated) [AZELASTINE]: the AC50 in experiment [1] and in experiment [4] was > 30 µM throughout.

For the molecule `N[C@@H](C(=O)N[C@@H]1C(=O)N2C(C(=O)O)=C(Cl)CS[C@H]12)c1ccccc1` [CEFACLOR ANHYDROUS], the AC50 in experiment [1], in experiment [2], in experiment [3] and in experiment [4] was > 30 µM throughout.

In the case of `CCO/N=C(\C(=O)N[C@@H]1C(=O)N2C(C(=O)[O-])=C(Sc3nc(-c4cc[n+](C)cc4)cs3)CS[C@H]12)c1nsc(N)n1` [CEFTAROLINE], the AC50 in experiment [5], in experiment [8], in experiment [6] and in experiment [7] was > 30 µM each time.

Consider `Cc1cc(O)cc(C)c1Cl` [CHLOROXYLENOL], for which the concentration at half-maximal activity (AC50) in experiment [5], in experiment [8] and in experiment [7] was > 30 µM throughout.

As for `CCC[C@@H]1C[C@@H](C(=O)N[C@@H]([C@H]2O[C@H](SC)[C@H](O)[C@@H](O)[C@H]2O)[C@H](C)Cl)N(C)C1` [CLINDAMYCIN], the AC50 in experiment [1] and in experiment [2] was > 30 µM each time.

As to `CN(C)CCCN1c2ccccc2CCc2ccc(Cl)cc21` [CLOMIPRAMINE], the AC50 in experiment [8], in experiment [6] and in experiment [7] was > 30 µM each time.

For `CC(=O)OCC(=O)[C@@]1(O)CC[C@H]2[C@@H]3CCC4=CC(=O)CC[C@]4(C)[C@H]3C(=O)C[C@@]21C` [CORTISONE ACETATE], the AC50 in experiment [1] is > 30 µM.

Turning to `COC(=O)[C@@H]1CC2=CC(=O)CC[C@]2(C)[C@@]23O[C@@H]2C[C@@]2(C)[C@@H](CC[C@@]24CCC(=O)O4)[C@H]13` [EPLERENONE], the AC50 in experiment [1] and in experiment [2] was > 30 µM in each case.

Regarding `NC(N)=Nc1nc(CSCCC(N)=NS(N)(=O)=O)cs1` [FAMOTIDINE], the AC50 in experiment [1], in experiment [2] and in experiment [3] was > 30 µM in each case.

As for `CC(C)Cc1ccc(CC(=O)O)cc1` [IBUFENAC], the AC50 in experiment [1] and in experiment [4] was > 30 µM in each case.

As to `CC(C)NNC(=O)c1ccncc1` [IPRONIAZID], the AC50 in experiment [1] and in experiment [4] was > 30 µM each time.

For `CCN(CC)CCNC(=O)c1cc(Cl)c(N)cc1OC` [METOCLOPRAMIDE], the AC50 in experiment [1] and in experiment [2] was > 30 µM each time.

`Cc1cccc(C)c1OCC(C)N` (configuration not stated) [MEXILETINE]: the AC50 in experiment [1], in experiment [2] and in experiment [4] was > 30 µM in each case.

Consider `NC(=O)c1ncn([C@@H]2O[C@H](CO)[C@@H](O)[C@H]2O)c1O` [MIZORIBINE], for which the AC50 in experiment [1], in experiment [2], in experiment [3] and in experiment [4] was > 30 µM throughout.

As for `OCCN1CCN(CCCN2c3ccccc3C=Cc3ccccc32)CC1` [OPIPRAMOL], the AC50 in experiment [1], in experiment [2], in experiment [3], in experiment [4], in experiment [6] and in experiment [7] was > 30 µM each time.

Take `CCc1ccc(CCOc2ccc(CC3SC(=O)NC3=O)cc2)nc1` (configuration not stated) [PIOGLITAZONE]: the AC50 in experiment [2], in experiment [5], in experiment [3], in experiment [6] and in experiment [7] was > 30 µM in each case.

In the case of `CC[C@H](C)C(=O)O[C@H]1C[C@H](O)C=C2C=C[C@H](C)[C@H](CC[C@@H](O)C[C@@H](O)CC(=O)O)[C@H]21` [PRAVASTATIN], the concentration at half-maximal activity (AC50) in experiment [1] and in experiment [4] was > 30 µM in each case.

On to `CN(C)C(=O)Oc1ccc[n+](C)c1` [PYRIDOSTIGMINE], for which the AC50 in experiment [5], in experiment [8] and in experiment [6] was > 30 µM each time.

Turning to `O=C(NC[C@H]1CN(c2ccc(N3CCOCC3=O)cc2)C(=O)O1)c1ccc(Cl)s1` [RIVAROXABAN], the AC50 in experiment [1], in experiment [4], in experiment [6] and in experiment [7] was > 30 µM throughout.

Consider `Cc1ccc(O)c2ncccc12` [TILIQUINOL], for which the AC50 in experiment [5], in experiment [6] and in experiment [7] was > 30 µM each time.

For the molecule `CC(=O)OC[C@H]1O[C@@H](n2ccc(=O)[nH]c2=O)[C@H](OC(C)=O)[C@@H]1OC(C)=O` [URIDINE TRIACETATE], the AC50 in experiment [5], in experiment [6] and in experiment [7] was > 30 µM each time.

As to `O=C(CCCCCCC(=O)Nc1ccccc1)NO` [VORINOSTAT], the AC50 in experiment [1], in experiment [2] and in experiment [4] was > 30 µM in each case.
